Measurements from patent publication US9682983B2, “BMP inhibitors and methods of use thereof” (THE BRIGHAM AND WOMEN'S HOSPITAL, INC., priority 2013, dated 2017).

Each compound was assayed against human ALK2 (Homo sapiens (Human), UniProt Q04771) (assay: LANCE Ultra ULight enzymatic assay (FOP Enzymatic Assay), ALK2). Conditions: 10 μM ATP.
Format: biochemical

Chain of human ALK2 (Q04771 21-509): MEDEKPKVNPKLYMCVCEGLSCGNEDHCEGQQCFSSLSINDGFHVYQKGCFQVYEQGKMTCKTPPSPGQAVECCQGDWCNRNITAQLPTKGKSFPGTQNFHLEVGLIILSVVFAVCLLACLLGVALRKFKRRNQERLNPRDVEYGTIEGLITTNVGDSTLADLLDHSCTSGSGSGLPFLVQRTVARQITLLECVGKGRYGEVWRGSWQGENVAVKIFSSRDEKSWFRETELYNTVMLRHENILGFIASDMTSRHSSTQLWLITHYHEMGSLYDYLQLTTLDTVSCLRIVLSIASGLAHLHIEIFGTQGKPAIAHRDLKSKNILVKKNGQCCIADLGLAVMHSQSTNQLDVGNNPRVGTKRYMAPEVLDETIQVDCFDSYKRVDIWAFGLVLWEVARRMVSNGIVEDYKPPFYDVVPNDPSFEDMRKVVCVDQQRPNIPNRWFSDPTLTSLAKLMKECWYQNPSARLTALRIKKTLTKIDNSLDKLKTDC

Compound | IC50 [nM]
[2H]c1ccc2c(-c3cnn4cc(-c5ccc(OCCN6CCCCC6)cn5)cnc34)cccc2n1 [Compound 47, 5-(6-(5-(2-(piperidin-1-yl)ethoxy)pyridin-2-yl)pyrazolo[1,5-a]pyrimidin-3-yl)-2-^2H-quinoline] | 94

Same assay, conditions: read-out: ALK2 IC50 (nM) at 10 μM ATP; 10 μM ATP

Compound | IC50 [nM]
c1ccc2c(-c3cnn4cc(-c5ccc(N6CCNCC6)cn5)cnc34)ccnc2c1 [Compound 3] | 16
C(#Cc1cnc2c(-c3ccnc4ccccc34)cnn2c1)CN1CCNCC1 [Compound 4, 4-(6-(3-(piperazin-1-yl)prop-1-ynyl)pyrazolo[1,5-a]pyrimidin-3-yl)quinoline] | 68
c1ccc2c(-c3cnn4cc(-c5cnc(N6CCNCC6)nc5)cnc34)ccnc2c1 [Compound 5, 4-(6-(2-(piperazin-1-yl)pyrimidin-5-yl)pyrazolo[1,5-a]pyrimidin-3-yl)quinoline] | 103
c1ccc2c(-c3cnn4cc(-c5ccc(N6C[C@@H]7C[C@H]6CN7)cc5)cnc34)ccnc2c1 [Compound 6, 4-(6-(4-((1S,4S)-2,5-diazabicyclo[2.2.1]heptan-2-yl)phenyl)pyrazolo[1,5-a]pyrimidin-3-yl)quinoline] | 12
c1ccc2c(-c3cnn4cc(-c5ncc(N6CCNCC6)s5)cnc34)ccnc2c1 [Compound 7, 5-(piperazin-1-yl)-2-(3-(quinolin-4-yl)pyrazolo[1,5-a]pyrimidin-6-yl)thiazole] | 19
Clc1cc(-c2cnn3cc(-c4ccc(N5CCNCC5)cc4)cnc23)c2ccccc2n1 [Compound 8, 2-chloro-4-(6-(4-(piperazin-1-yl)phenyl)pyrazolo[1,5-a]pyrimidin-3-yl)quinoline] | 24
Oc1cc(-c2cnn3cc(-c4ccc(N5CCNCC5)cc4)cnc23)c2ccccc2n1 [Compound 9, 4-(6-(4-(piperazin-1-yl)phenyl)pyrazolo[1,5-a]pyrimidin-3-yl)quinolin-2-ol] | 792
Cc1cc(-c2cnn3cc(-c4ccc(N5[C@H](C)CNC[C@@H]5C)cc4)cnc23)c2ccccc2n1 [Compound 11, 4-(6-(4-((2R,6S)-2,6-dimethylpiperazin-1-yl)phenyl)pyrazolo[1,5-a]pyrimidin-3-yl)-2-methylquinoline] | 7.7
OCCNCc1ccc2c(-c3cnn4cc(-c5ccc(N6CCNCC6)cc5)cnc34)ccnc2c1 [Compound 14, 2-(((4-(6-(4-(piperazin-1-yl)phenyl)pyrazolo[1,5-a]pyrimidin-3-yl)quinolin-7-yl)methyl)amino)ethanol] | 517
NC(=O)c1ccc2c(-c3cnn4cc(-c5ccc(N6CCNCC6)cc5)cnc34)ccnc2c1 [Compound 15, 4-(6-(4-(piperazin-1-yl)phenyl)pyrazolo[1,5-a]pyrimidin-3-yl)quinoline-7-carboxamide] | 127
OCc1ccc2c(-c3cnn4cc(-c5ccc(N6CCNCC6)cc5)cnc34)ccnc2c1 [Compound 16, (4-(6-(4-(piperazin-1-yl)phenyl)pyrazolo[1,5-a]pyrimidin-3-yl)quinolin-7-yl)methanol] | 102
CNCc1ccc2c(-c3cnn4cc(-c5ccc(N6CCNCC6)cc5)cnc34)ccnc2c1 [Compound 18, N-methyl-1-(4-(6-(4-(piperazin-1-yl)phenyl)pyrazolo[1,5-a]pyrimidin-3-yl)quinolin-7-yl)methanamine] | 906
CN(C)Cc1ccc2c(-c3cnn4cc(-c5ccc(N6CCNCC6)cc5)cnc34)ccnc2c1 [Compound 19, N,N-dimethyl-1-(4-(6-(4-(piperazin-1-yl)phenyl)pyrazolo[1,5-a]pyrimidin-3-yl)quinolin-7-yl)methanamine] | 407
NCc1ccc2c(-c3cnn4cc(-c5ccc(N6CCNCC6)cc5)cnc34)ccnc2c1 [Compound 20, (4-(6-(4-(piperazin-1-yl)phenyl)pyrazolo[1,5-a]pyrimidin-3-yl)quinolin-7-yl)methanamine] | 706
c1cc(-c2cnn3cc(-c4ccc(N5CCNCC5)cc4)cnc23)c2ccc(CN3CCCC3)cc2n1 [Compound 21, 4-(6-(4-(piperazin-1-yl)phenyl)pyrazolo[1,5-a]pyrimidin-3-yl)-7-(pyrrolidin-1-ylmethyl)quinoline] | 2140
O=C(O)c1cccc2c(-c3cnn4cc(-c5ccc(N6CCNCC6)cc5)cnc34)ccnc12 [Compound 22, 4-(6-(4-(piperazin-1-yl)phenyl)pyrazolo[1,5-a]pyrimidin-3-yl)quinoline-8-carboxylic acid] | 88
NC(=O)c1cccc2c(-c3cnn4cc(-c5ccc(N6CCNCC6)cc5)cnc34)ccnc12 [Compound 23, 4-(6-(4-(piperazin-1-yl)phenyl)pyrazolo[1,5-a]pyrimidin-3-yl)quinoline-8-carboxamide] | 26
OCc1cccc2c(-c3cnn4cc(-c5ccc(N6CCNCC6)cc5)cnc34)ccnc12 [Compound 24, (4-(6-(4-(piperazin-1-yl)phenyl)pyrazolo[1,5-a]pyrimidin-3-yl)quinolin-8-yl)methanol] | 62
NCc1cccc2c(-c3cnn4cc(-c5ccc(N6CCNCC6)cc5)cnc34)ccnc12 [Compound 25, (4-(6-(4-(piperazin-1-yl)phenyl)pyrazolo[1,5-a]pyrimidin-3-yl)quinolin-8-yl)methanamine] | 482
CC(=O)Nc1ccc2c(-c3cnn4cc(-c5ccc(N6CCNCC6)cc5)cnc34)ccnc2c1 [Compound 26, N-(4-(6-(4-(piperazin-1-yl)phenyl)pyrazolo[1,5-a]pyrimidin-3-yl)quinolin-7-yl)acetamide] | 105
Nc1ccc2c(-c3cnn4cc(-c5ccc(N6CCNCC6)cc5)cnc34)ccnc2c1 [Compound 27, 4-(6-(4-(piperazin-1-yl)phenyl)pyrazolo[1,5-a]pyrimidin-3-yl)quinolin-7-amine] | 44

Compound | IC50 [nM]
Oc1ccc2c(-c3cnn4cc(-c5ccc(N6CCNCC6)cc5)cnc34)ccnc2c1 [Compound 28, 4-(6-(4-(piperazin-1-yl)phenyl)pyrazolo[1,5-a]pyrimidin-3-yl)quinolin-7-ol] | 31
c1cc(-c2cnn3cc(-c4ccc(OCCN5CCCCC5)nc4)cnc23)c2cccnc2c1 [Compound 29, 5-(6-(6-(2-(piperidin-1-yl)ethoxy)pyridin-3-yl)pyrazolo[1,5-a]pyrimidin-3-yl)quinoline] | 127
c1cc(-c2cnn3cc(-c4ccc(N5CCNCC5)nc4)cnc23)c2cccnc2c1 [Compound 30, 5-(6-(6-(piperazin-1-yl)pyridin-3-yl)pyrazolo[1,5-a]pyrimidin-3-yl)quinoline] | 84
c1cc(-c2cnn3cc(-c4ccc(OCCN5CCCCC5)cc4)cnc23)c2cccnc2c1 [Compound 31, 5-(6-(4-(2-(piperidin-1-yl)ethoxy)phenyl)pyrazolo[1,5-a]pyrimidin-3-yl)quinoline] | 38
CC(C)(CN1CCCCC1)Oc1ccc(-c2cnc3c(-c4cccc5ncccc45)cnn3c2)cc1 [Compound 32, 5-(6-(4-((2-methyl-1-(piperidin-1-yl)propan-2-yl)oxy)phenyl)pyrazolo[1,5-a]pyrimidin-3-yl)quinoline] | 106
C[C@@H]1CNC[C@H](C)N1c1ccc(-c2cnc3c(-c4ccnc5ccccc45)cnn3c2)cn1 [Compound 33, 4-(6-(6-((2R,6S)-2,6-dimethylpiperazin-1-yl)pyridin-3-yl)pyrazolo[1,5-a]pyrimidin-3-yl)quinoline] | 22
C[C@@H]1CNC[C@H](C)N1c1ccc(-c2cnc3c(-c4cccc5ncccc45)cnn3c2)cn1 [Compound 34] | 56
Clc1cc(-c2cnc3c(-c4ccnc5ccccc45)cnn3c2)ccc1N1CCNCC1 [Compound 35, 4-(6-(3-chloro-4-(piperazin-1-yl)phenyl)pyrazolo[1,5-a]pyrimidin-3-yl)quinoline] | 30
Clc1cc(-c2cnc3c(-c4cccc5ncccc45)cnn3c2)ccc1N1CCNCC1 [Compound 36, 5-(6-(3-chloro-4-(piperazin-1-yl)phenyl)pyrazolo[1,5-a]pyrimidin-3-yl)quinoline] | 46
N#Cc1cc(-c2cnc3c(-c4ccnc5ccccc45)cnn3c2)ccc1N1CCNCC1 [Compound 37, 2-(piperazin-1-yl)-5-(3-(quinolin-4-yl)pyrazolo[1,5-a]pyrimidin-6-yl)benzonitrile] | 24
N#Cc1cc(-c2cnc3c(-c4cccc5ncccc45)cnn3c2)ccc1N1CCNCC1 [Compound 38] | 47
Fc1cc(-c2cnc3c(-c4ccnc5ccccc45)cnn3c2)ccc1N1CCNCC1 [Compound 39] | 15
Fc1cc(-c2cnc3c(-c4cccc5ncccc45)cnn3c2)ccc1N1CCNCC1 [Compound 40] | 32
c1ccc2c(-c3cnn4cc(-c5ccc(OCCN6CCNCC6)nc5)cnc34)ccnc2c1 [Compound 41, 4-(6-(6-(2-(piperazin-1-yl)ethoxy)pyridin-3-yl)pyrazolo[1,5-a]pyrimidin-3-yl)quinoline] | 22
c1cc(-c2cnn3cc(-c4ccc(OCCN5CCNCC5)nc4)cnc23)c2cccnc2c1 [Compound 42, 5-(6-(6-(2-(piperazin-1-yl)ethoxy)pyridin-3-yl)pyrazolo[1,5-a]pyrimidin-3-yl)quinoline] | 14
CN1CCN(CCOc2ccc(-c3cnc4c(-c5ccnc6ccccc56)cnn4c3)cn2)CC1 [Compound 43, 4-(6-(6-(2-(4-methylpiperazin-1-yl)ethoxy)pyridin-3-yl)pyrazolo[1,5-a]pyrimidin-3-yl)quinoline] | 122
CN1CCN(CCOc2ccc(-c3cnc4c(-c5cccc6ncccc56)cnn4c3)cn2)CC1 [Compound 44, 5-(6-(6-(2-(4-methylpiperazin-1-yl)ethoxy)pyridin-3-yl)pyrazolo[1,5-a]pyrimidin-3-yl)quinoline] | 17
Clc1cc(-c2cnc3c(-c4ccnc5ccccc45)cnn3c2)ccc1OCCN1CCCCC1 [Compound 45, 4-(6-(3-chloro-4-(2-(piperidin-1-yl)ethoxy)phenyl)pyrazolo[1,5-a]pyrimidin-3-yl)quinoline] | 56
Clc1cc(-c2cnc3c(-c4cccc5ncccc45)cnn3c2)ccc1OCCN1CCCCC1 [Compound 46] | 16
Cc1ccc2c(-c3cnn4cc(-c5ccc(OCCN6CCNCC6)cn5)cnc34)cccc2n1 [Compound 50, 2-methyl-5-(6-(5-(2-(piperazin-1-yl)ethoxy)pyridin-2-yl)pyrazolo[1,5-a]pyrimidin-3-yl)quinoline] | 643
